# Source: patent US10344034B2, “Pyrazolopyrimidone or Pyrrolotriazone derivatives, method of preparing same, and pharmaceutical applications thereof” (Shanghai Hengrui Pharmaceutical Co., Ltd., priority 2013, dated 2019)
# What was measured:
# rabbit GnRHr = rabbit GnRHr (Oryctolagus cuniculus, UniProt Q5U7L3); assay: Rabbit GnRHr inhibitory activity assay, rabbit GnRHr/CHO stably transfected cell lines; type: cell-based; details: rabbit GnRHr/CHO cells, GnRH polypeptide stimulant, Fluo-4
# Method: Test Example 3. Rabbit GnRHr Inhibitory Activity Assay of the Present Compounds
# This assay was used to determine the inhibition effect of the present compounds on the activity of rabbit GnRHr protein expressed by rabbit GnRHr/CHO stably transfected cell lines.
# A mammalian expression vector containing the rabbit GnRHr gene was transferred into CHO cells by adding Lipofectamine® LTX reagent containing Plus™. Antibiotics were added the next day for screening to pick out the monoclonal cell lines.
# The rabbit GnRHr/CHO stably transfected cell lines were inoculated in 96-well plates with an inoculation density of 25,000 cells/well. The culture medium was removed the next day, and loading buffer containing Fluo-4 dye was added to the plate (100 μL/well) and incubated for 30 minutes at 37° C. The plate was moved to room temperature and equilibrated for 10 minutes. Each compound was diluted with DMSO to seven concentration gradients of 100 μM, 10 μM, 1 μM, 0.1 μM, 0.01 μM, 0.001 μM, 0.0001 μM. Then, 1 μl of each gradient was added to each well and incubated for 10 minutes at room temperature. After automated addition of 50 μL of GnRH polypeptide stimulant solution, the value was immediately detected at 494/516n M by a microplate reader (flexstation 3). IC50 values of the compounds were calculated by software from different fluorescence signals at various corresponding concentrations.
# The inhibitory activity of the present compounds on rabbit GnRHr was determined by the above assay, and IC50 values are shown in Table 1.
# [1] = Beagle pharmacokinetics assay; type: in vivo, beagles; details: for AUC: read-out: Area under curve AUC; for half-life: read-out: Half-life T1/2 (converted); for MRT: read-out: Residence time MRT
# Method: Test Example 6. Beagle Pharmacokinetics Assay of Example 11 of the Present Invention
# Beagles were used as test animals. The plasma concentrations at various times were determined by LC/MS/MS after intragastric administration of the compound of Example 11, and intravenous administration of the compound of Example 11 to beagles. The pharmacokinetic behavior of the present compound in beagles was studied, and the pharmacokinetic features were evaluated.
# Eight (8) healthy beagles (half female and half male) were evenly designated into 2 groups. The animals were purchased from SuzhouXishan Zhongke Laboratory Animal Corp. Ltd.
# An appropriate amount of sample was weighed, and added with 0.5% CMC-Na to form a 1.0 mg/ml suspension upon ultrasonic treatment;
# Appropriate amounts of drugs were weighed, and dissolved with 5 ml DMSO and 5 ml of Tween 80. Saline solution was added to the final volume.
# Eight (8) healthy beagles (half female and half male) were evenly designated into 2 groups, and administered by oral gavage or intravenous injection (i.v.) (oral gavage at a dosage of 5 mg/kg with an administration volume of 5 ml/kg, and i.v. at a dosage of 2 mg/kg with an administration volume of 2 ml/kg) after fasting overnight.
# 1.0 ml of blood was sampled from the foreleg vein before, and 0.25, 0.5, 1, 2, 4, 6, 8, 12, and 24 hours after oral administration, collected in a heparinized test tube, and centrifuged at 3500 rpm for 10 minutes to separate the plasma, which was stored at −20° C. The animals were allowed access to feed 2 hours after administration. Blood was sampled before, and 5 minutes, 0.25, 0.5, 1, 2, 4, 6, 8, 12, and 24 hours after intravenous administration, and treated the same as above. The content of the test compound in the plasma of beagles after administration of the compound by oral gavage and intravenous injection was determined by LC/MS/MS.
# [2] = Rat pharmacokinetics assay; type: in vivo, Sprague-Dawley (SD) rats; details: for AUC: read-out: Area under curve AUC; for half-life: read-out: Half-life T1/2 (converted); for MRT: read-out: Residence time MRT
# Method: Test Example 4. Rat pharmacokinetics assay of the compounds of Example 2, Example 3, Example 5, Example 9, Example 10, Example 11, and Example 13 of the present invention.
# Sprague-Dawley (SD) rats were used as test animals. The plasma concentrations at various times were determined by LC/MS/MS after intragastric administration of compounds of Example 2, Example 3, Example 5, Example 9, Example 10, Example 11, and Example 13, and intravenous administration of the compound of Example 11 to the rats. The pharmacokinetic behavior of the present compounds in rats was studied, and the pharmacokinetic features were evaluated.
# Thirty-two (32) healthy adult SD rats (half female and half male) were evenly designated into 8 groups (4 for each group). The animals were purchased from Shanghai Super B&K Laboratory Animal Corp. Ltd (laboratory animal production Certificate No. SCXK (HU)2008-0016).
# An appropriate amount of sample was weighed, and added with 0.5% CMC-Na to form a 1 mg/ml suspension upon ultrasonic treatment.
# Appropriate amounts of drugs were weighed, and dissolved with 0.5 ml DMSO and 0.5 ml of Tween 80. Saline solution was added to the final volume.
# Thirty-two (32) SD rats (half female and half male) were evenly designated into 8 groups (4 for each group), and administered by oral gavage or intravenous injection (i.v.) (oral gavage at a dosage of 10 mg/kg or 30 mg/kg, and i.v. at a dosage of 5.0 mg/kg), respectively, at a volume of 10 ml/kg after fasting overnight.
# 0.1 ml of blood was sampled before, and 0.5, 1, 2, 4, 6, 8, 11, and 24 hours after administration, collected in a heparinized test tube, and centrifuged at 3500 rpm for 10 minutes to separate the plasma, which was stored at −20° C. The animals were allowed access to feed 2 hours after administration.
# The content of the test compound in the plasma of rats after administration of the compound by oral gavage was determined by LC/MS/MS.
# [3] = both sexes, dog, plasma, iv, i.v. 2 mg/kg
# [4] = both sexes, dog, plasma, oral 5 mg/kg
# [5] = both sexes, Sprague-Dawley, plasma, iv, i.v. 5 mg/kg
# [6] = both sexes, Sprague-Dawley, plasma, oral 10 mg/kg
# rabbit GnRHr, sequence (Q5U7L3 1-328): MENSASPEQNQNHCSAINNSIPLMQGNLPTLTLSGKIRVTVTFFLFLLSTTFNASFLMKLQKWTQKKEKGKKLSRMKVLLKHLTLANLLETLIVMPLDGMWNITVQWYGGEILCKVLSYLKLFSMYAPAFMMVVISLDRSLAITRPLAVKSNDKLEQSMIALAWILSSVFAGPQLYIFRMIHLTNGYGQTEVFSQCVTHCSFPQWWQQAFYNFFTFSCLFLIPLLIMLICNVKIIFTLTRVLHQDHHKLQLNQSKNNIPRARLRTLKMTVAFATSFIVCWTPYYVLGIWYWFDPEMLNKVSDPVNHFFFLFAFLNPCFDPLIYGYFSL
structure (smiles),measurement,setting,value
"CONC(=O)Nc1ccc(-n2nc3c(c2CN(C)C)c(=O)n(-c2ccc(OC)nn2)c(=O)n3Cc2c(F)cccc2F)cc1 [Example 11, 1-(4-(7-(2,6-difluorobenzyl)-3-((dimethylamino)methyl)-5-(6-methoxypyridazin-3-yl)-4,6-dioxo-4,5,6,7-tetrahydro-2H-pyrazolo[3,4-d]pyrimidin-2-yl)phenyl)-3-methoxyurea]",IC50,rabbit GnRHr,0.57 nM
same,AUC,[1]; [3],2300 ± 213 ng·h/mL
same,half-life,[1]; [3],3.34 ± 0.4 h
same,MRT,[1]; [3],4.02 ± 0.5 h
same,Vd/F,"[1]; both sexes, dog, plasma, oral 5 mg/kg, read-out: Apparent volume of distribution Vz/F",7.25 ± 4.37 L/kg
same,AUC,[1]; [4],5940 ± 1340 ng·h/mL
same,CL/F,"[1]; both sexes, dog, plasma, oral 5 mg/kg, read-out: Clearance rate CL/F",14.7 ± 4.2 mL/min/kg
same,half-life,[1]; [4],5.37 ± 1.52 h
same,Cmax,"[1]; both sexes, dog, plasma, oral 5 mg/kg, read-out: Plasma concentration Cmax",1090 ± 350 ng/mL
same,MRT,[1]; [4],6.4 ± 2.82 h
same,Apparent volume of distribution Vz/F,[1]; i.v. 2 mg/kg,4.235 ± 0.706 L/kg
same,Clearance rate CL/F,[1]; i.v. 2 mg/kg,14.6 ± 1.3 mL/min/kg
same,AUC,[2]; [5],2670 ± 1240 ng·h/mL
same,half-life,[2]; [5],1.59 ± 0.5 h
same,MRT,[2]; [5],2.25 ± 0.06 h
same,Vd/F,"[2]; both sexes, Sprague-Dawley, plasma, oral 10 mg/kg, read-out: Apparent volume of distribution Vz/F",3.29 ± 1.51 L/kg
same,AUC,[2]; [6],4090 ± 1440 ng·h/mL
same,CL/F,"[2]; both sexes, Sprague-Dawley, plasma, oral 10 mg/kg, read-out: Clearance rate CL/F",44.2 ± 13.4 mL/min/kg
same,half-life,[2]; [6],0.84 ± 0.18 h
same,Cmax,"[2]; both sexes, Sprague-Dawley, plasma, oral 10 mg/kg, read-out: Plasma concentration Cmax",2440 ± 873 ng/mL
same,MRT,[2]; [6],1.56 ± 0.34 h
same,Apparent volume of distribution Vz/F,[2]; i.v. 5 mg/kg,4.929 ± 2.39 L/kg
same,Clearance rate CL/F,[2]; i.v. 5 mg/kg,35.4 ± 12.5 mL/min/kg
